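Values below derive from 48-hour exposures of cells grown in 96-well plates, with endpoints linearly interpolated between the two concentrations bracketing the appropriate inhibition level. TGI is the concentration that stops growth completely.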
Columns and labels:
Test in all cases: inhibition of tumour cell growth, NCI panel, 48 h
SF-539 CNS = system: SF-539 CNS
786-0 renal = system: 786-0 renal
SK-MEL-2 melanoma = system: SK-MEL-2 melanoma
OVCAR-5 ovarian = system: OVCAR-5 ovarian
HL-60(TB) leukemia = system: HL-60(TB) leukemia
PC-3 prostate = system: PC-3 prostate
SK-OV-3 ovarian = system: SK-OV-3 ovarian
A549 NSCLC = system: A549 NSCLC
OVCAR-8 ovarian = system: OVCAR-8 ovarian
IGROV1 ovarian = system: IGROV1 ovarian
M14 melanoma = system: M14 melanoma
HCT-15 colon = system: HCT-15 colon
CAKI-1 renal = system: CAKI-1 renal
TK-10 renal = system: TK-10 renal
HS 578T breast = system: HS 578T breast
UACC-62 melanoma = system: UACC-62 melanoma
UO-31 renal = system: UO-31 renal
MCF7 breast = system: MCF7 breast
SR leukemia = system: SR leukemia
SNB-75 CNS = system: SNB-75 CNS
NCI-H23 lung = system: NCI-H23 lung
SW-620 colon = system: SW-620 colon
HOP-92 NSCLC = system: HOP-92 NSCLC
CCRF-CEM leukemia = system: CCRF-CEM leukemia
HCC-2998 colon = system: HCC-2998 colon
MDA-MB-231 breast = system: MDA-MB-231 breast
RXF 393 renal = system: RXF 393 renal
NCI-H460 lung = system: NCI-H460 lung
SF-268 CNS = system: SF-268 CNS
EKVX NSCLC = system: EKVX NSCLC
BT-549 breast = system: BT-549 breast
MALME-3M melanoma = system: MALME-3M melanoma
HCT-116 colon = system: HCT-116 colon
K-562 leukemia = system: K-562 leukemia
MOLT-4 leukemia = system: MOLT-4 leukemia
OVCAR-4 ovarian = system: OVCAR-4 ovarian
DU-145 prostate = system: DU-145 prostate
COLO 205 colon = system: COLO 205 colon
RPMI-8226 leukemia = system: RPMI-8226 leukemia
T-47D breast = system: T-47D breast
NCI-H226 lung = system: NCI-H226 lung
SF-295 CNS = system: SF-295 CNS
ACHN renal = system: ACHN renal
U251 CNS = system: U251 CNS
NCI-H522 lung = system: NCI-H522 lung
HT29 colon = system: HT29 colon
SK-MEL-5 melanoma = system: SK-MEL-5 melanoma
A498 renal = system: A498 renal
UACC-257 melanoma = system: UACC-257 melanoma
LOX IMVI melanoma = system: LOX IMVI melanoma
HOP-62 NSCLC = system: HOP-62 NSCLC
SNB-19 CNS = system: SNB-19 CNS
KM12 colon = system: KM12 colon
SN12C renal = system: SN12C renal
SK-MEL-28 melanoma = system: SK-MEL-28 melanoma
OVCAR-3 ovarian = system: OVCAR-3 ovarian

Question: How did the TGI (SF-539 CNS) turn out when `COc1cccc(CCNc2c(C#N)c3nc4ccccc4n3c3ccccc23)c1` was run?
Answer: Its TGI is > 100 µM.

Question: And the TGI (786-0 renal)?
Answer: Its TGI is > 75.9 µM.

Question: And the TGI (SK-MEL-2 melanoma)?
Answer: The TGI was > 100 µM.

Question: And the TGI (OVCAR-5 ovarian)?
Answer: Its TGI is > 100 µM.

Question: What about the TGI (HL-60(TB) leukemia) of the same compound?
Answer: The TGI was > 100 µM.

Question: And the TGI (PC-3 prostate)?
Answer: The TGI was > 100 µM.

Question: And the TGI (SK-OV-3 ovarian)?
Answer: The TGI was > 100 µM.

Question: What about the TGI (A549 NSCLC) of the same compound?
Answer: Its TGI is > 100 µM.

Question: And the TGI (OVCAR-8 ovarian)?
Answer: The TGI was > 100 µM.

Question: And the TGI (IGROV1 ovarian)?
Answer: Its TGI is > 100 µM.

Question: And the TGI (M14 melanoma)?
Answer: The TGI was > 100 µM.

Question: What about the TGI (HCT-15 colon) of the same compound?
Answer: Its TGI is > 100 µM.

Question: What about the TGI (CAKI-1 renal) of the same compound?
Answer: Its TGI is > 100 µM.

Question: And the TGI (TK-10 renal)?
Answer: Its TGI is > 100 µM.

Question: What about the TGI (HS 578T breast) of the same compound?
Answer: Its TGI is > 27.2 µM.

Question: And the TGI (UACC-62 melanoma)?
Answer: The TGI was > 100 µM.

Question: What about the TGI (UO-31 renal) of the same compound?
Answer: The TGI was > 100 µM.

Question: And the TGI (MCF7 breast)?
Answer: The TGI was > 100 µM.

Question: What about the TGI (SR leukemia) of the same compound?
Answer: Its TGI is > 100 µM.

Question: What about the TGI (SNB-75 CNS) of the same compound?
Answer: Its TGI is > 58 µM.

Question: And the TGI (NCI-H23 lung)?
Answer: Its TGI is > 30.5 µM.

Question: What about the TGI (SW-620 colon) of the same compound?
Answer: Its TGI is > 100 µM.

Question: What about the TGI (HOP-92 NSCLC) of the same compound?
Answer: The TGI was > 100 µM.

Question: And the TGI (CCRF-CEM leukemia)?
Answer: Its TGI is > 100 µM.

Question: And the TGI (HCC-2998 colon)?
Answer: Its TGI is > 100 µM.

Question: And the TGI (MDA-MB-231 breast)?
Answer: Its TGI is > 100 µM.

Question: And the TGI (RXF 393 renal)?
Answer: The TGI was > 100 µM.

Question: What about the TGI (NCI-H460 lung) of the same compound?
Answer: The TGI was > 100 µM.

Question: What about the TGI (SF-268 CNS) of the same compound?
Answer: The TGI was > 100 µM.

Question: What about the TGI (EKVX NSCLC) of the same compound?
Answer: Its TGI is > 100 µM.

Question: And the TGI (BT-549 breast)?
Answer: The TGI was > 100 µM.

Question: And the TGI (MALME-3M melanoma)?
Answer: Its TGI is > 100 µM.

Question: What about the TGI (HCT-116 colon) of the same compound?
Answer: Its TGI is > 61.5 µM.

Question: What about the TGI (K-562 leukemia) of the same compound?
Answer: The TGI was > 100 µM.

Question: And the TGI (MOLT-4 leukemia)?
Answer: The TGI was > 100 µM.

Question: What about the TGI (OVCAR-4 ovarian) of the same compound?
Answer: Its TGI is > 100 µM.

Question: And the TGI (DU-145 prostate)?
Answer: The TGI was > 41.1 µM.

Question: And the TGI (COLO 205 colon)?
Answer: Its TGI is > 47.4 µM.

Question: What about the TGI (RPMI-8226 leukemia) of the same compound?
Answer: Its TGI is > 100 µM.

Question: And the TGI (T-47D breast)?
Answer: The TGI was > 52.6 µM.

Question: What about the TGI (NCI-H226 lung) of the same compound?
Answer: Its TGI is > 100 µM.

Question: And the TGI (SF-295 CNS)?
Answer: Its TGI is > 100 µM.

Question: And the TGI (ACHN renal)?
Answer: The TGI was > 100 µM.

Question: And the TGI (U251 CNS)?
Answer: Its TGI is > 100 µM.

Question: What about the TGI (NCI-H522 lung) of the same compound?
Answer: Its TGI is 0.397 µM.

Question: And the TGI (HT29 colon)?
Answer: The TGI was > 100 µM.

Question: What about the TGI (SK-MEL-5 melanoma) of the same compound?
Answer: The TGI was 0.872 µM.

Question: What about the TGI (A498 renal) of the same compound?
Answer: The TGI was > 26.2 µM.

Question: What about the TGI (UACC-257 melanoma) of the same compound?
Answer: The TGI was > 100 µM.

Question: What about the TGI (LOX IMVI melanoma) of the same compound?
Answer: The TGI was > 100 µM.

Question: What about the TGI (HOP-62 NSCLC) of the same compound?
Answer: Its TGI is > 100 µM.

Question: What about the TGI (SNB-19 CNS) of the same compound?
Answer: Its TGI is > 86 µM.

Question: And the TGI (KM12 colon)?
Answer: The TGI was > 44.5 µM.

Question: What about the TGI (SN12C renal) of the same compound?
Answer: Its TGI is > 70 µM.

Question: And the TGI (SK-MEL-28 melanoma)?
Answer: Its TGI is > 100 µM.

Question: And the TGI (OVCAR-3 ovarian)?
Answer: The TGI was > 100 µM.

— PubChem BioAssay (NCI)
